This is an account of results in patent publication US9611330B2, “Compositions and methods for cancer and cancer stem cell detection and elimination” (The Regents of the University of California, priority 2011, dated 2017).

For data set [1], the system named is human blast crisis CML LSC. In kind it is in vivo. The protocol: Human Progenitor Primagrafts and Treatment
Equal numbers of primary normal or blast crisis CML CD34^+ cells were transplanted intrahepatically into neonatal RAG2^−/−γc^−/− mice to form primagrafts, according to established methods^1, 3. At 8-12 weeks post-transplant, mice were treated with PF-04449913, Dasatinib, a combination of PF-04449913 and Dasatinib, or drug vehicle for 14 days followed by FACS analysis of human hematopoietic engraftment in hematopoietic tissues.
Nanofluidic phospho-proteomic immunoassay (NPI) experiments were performed with the NANOPRO 1000™ instrument (Cell Biosciences) and all samples were run in triplicate at least. The FIREFLY™ system first performed a charge-based separation (isoelectric focusing). Predicted pIs were calculated with SCANSITE™. Each sample was run on a panel of different pH gradients (pH 5-8) to optimize the resolution of different peak patterns. After separation and photo-activated in-capillary immobilization, GLI-2 was detected using GLI2-specific antibody (Abcam). A β2-microglubulin-specific antibody (β2M; Upstate) was used to normalize the amount of loaded protein. The peaks were quantified by calculating the area under the curve (AUC).
Primagrafts, in vivo Drug Treatment, and Engraftment Analysis
Immunocompromised RAG2^−/−γc^−/− mice were bred and maintained in the UC San Diego Moores Cancer Center vivarium. Neonatal mice were transplanted intrahepatically with normal progenitors or LSC from primary patient samples according to our previously published methods^19. Upon detection of tumor or peripheral blood engraftment, mice were treated daily by oral gavage with vehicle (50% 1,2 Propandiol, 50% HBSS or methylcellulose), PF-04449913 (100 mg/kg dissolved in vehicle), Dasatinib (50 mg/kg dissolved in vehicle), combination of PF-04449913 (100 mg/kg) and dasatinib (50 mg/kg). After treatment, mice were euthanized and single cell suspensions of hematopoietic tissues were analyzed for human engraftment by FACS as described previously^19, 20. Similarly, NOD.
Four vehicle-treated and four PF-04449913-treated samples constituting two sets of four technical replicates. The reads from the four RNA sequencing experiments under each treatment regimen were then combined for analysis of effects of vehicle and PF-04449913-treatment containing a total of 65M and 64M reads, respectively and compared with normal FACS purified cord blood CD34^+CD38^+Lin^− progenitors.
(§1) Single cell suspensions of bone marrow cells from mice treated with PF-0449913 or vehicle were immunostained with Alexa647-conjugated anti-human CD45 (BioLegend) in 2% fetal bovine serum/PBS followed by live cell staining using the LIVE/DEAD® Fixable Near-IR Dead Cell Stain Kit (Invitrogen). Surface stained cells were then fixed in 70% ethanol overnight. Fixed, surface stained cells were immunostained with FITC-conjugated anti-Ki-67 (Abcam, 1:100) in 0.15% saponin/2% fetal bovine serum/PBS, washed twice in saponin-containing staining media and incubated with 7-AAD (10 μg/mL in 0.1M sodium citrate/5 mM EDTA pH8.0/0.15M NaCl/0.5% BSA/0.02% saponin). Stained samples were analyzed using a FACSARIA™ and FLOWJO™^21.

The test system of data set [2] is blast crisis CML leukemic progenitors (LSC). The data set is described as follows: SL/M2 stromal co-culture of blast crisis CML LSC. In kind it is cell-based, human. Particulars: 7 days, vs vehicle (DMSO), p=0.047. The protocol:
Stromal Co-Culture and in vitro Drug Treatment
(§2) Normal or blast crisis CML CD34^+ cells were plated on confluent mitomycin-C treated SL/M2 cells with different doses of PF-04449913, dasatinib, a combination of PF-04449913 and dasatinib, or vehicle for […]. After 1 week of culture, FACS was used to quantify human progenitors and progenitors were FACS sorted into hematopoietic progenitor assays. Colonies were scored after 2 weeks in culture.
(§3) The mouse bone marrow stromal cells lines M2-10B4 (M2) and SL/SL (SL) were provided by StemCell Technologies on behalf of Dr. Donna Hogge in the Terry Fox Laboratory (Vancouver, British Columbia). One day prior to co-culture, the cell lines were treated with mitomycin-C (1 mg/ml) and plated in a 1:1 mixture in total concentration of 100,000/ml. 10,000-20,000 CD34^+ blast crisis CML or normal cells were then plated on adherent SL/M2 stromal cells, cultured for 7 days, and analyzed by FACS as described previously^19. To assess expansion of normal human HS/PCs, irradiated OP9 (M2 clone) stromal cells (20 Gray on a Saxon-Mark1 irradiator) were co-cultured with 50,000 human CD34^+ cord blood. OP9M2 stroma was grown in AlphaMem from Gibco with 20% Hyclone FBS, 1% pen strep glutamine and supplemented with cytokines: […] Flt3.

Another data set has as its system normal human HSPC. The data set is described as follows: CD34+ cord blood engrafted NSG mice, 14-day treatment. The class given is in vivo. Conditions: 100 mg/kg for 14 days. The protocol: Cg-Prkdc^scid Il2rg^tm1Wjl/SzJ female mice at 7-10 weeks were irradiated sublethally and transplanted with 100K CD34^+ human cord blood cells via retro-orbital injection. Eight weeks after transplantation of cord blood cells, the mice were treated for 14 days with either vehicle, or PF-04449913 via oral gavage.
as §1

The test system of data set [3] is normal human cord blood HSPC. The data set is described as follows: Normal human HSPC in hematopoietic progenitor assays and SL/M2 co-culture. The class given is cell-based. Here is the method:
as §2, §3

The subject of data set [4] is Ptch+/−p53+/− medulloblastoma allografts. The experiment in a line: Mouse medulloblastoma allograft model. The class given is in vivo. Particulars: oral dosing. From the text: TAQMAN™ primer/probe sets (ABI) for FoxM1 (Mm00514924_ml), Gli1 (Mm00494645_ml), Gli2 (Mm01293117_ml), Mycn (Mm00476449_ml), Ptch1 (Mm00436026_ml), Ptch2 (Mm00436047_ml), Sfrp1 (Mm00489161_ml), Smo (Mm01162710_ml) and mouse GAPDH (4352339E), on the ABI 7900HT instrument. Target gene expression levels were normalized to mouse GAPDH and calibrated to vehicle treated mice to yield the relative quantitation (RQ) value. Selective Shh Inhibition in a Mouse Medulloblastoma Allograft Model Primary medulloblastoma tumors were harvested from Ptch^+/−p53^+/− or Ptch^+/−p53^−/− mice and propagated as allografts in SCID-bg mice 6-8 weeks of age (20 grams). Freshly isolated tumor fragments of approximately 50 mm^3 were surgically implanted subcutaneously into the hind flank region. Body weights and tumor size (length and width) were measured at regular intervals using a caliper and tumor volume was calculated using the formula: length (mm)×width (mm)×width (mm)×0.4. For the tumor growth inhibition studies, cohorts of Ptch^+/−p53^+/− medulloblastoma allograft bearing mice with tumors ranging from 200 mm^3 to 1000 mm^3 were dosed daily by oral gavage with vehicle (30% PEG 400/70% PBS) or with PF-04449913 formulated in vehicle.

In data set [5] the test system is Shh stimulated luciferase expression under an 8× Gli-response element. The data set is described as follows: Mouse embryonic fibroblast Gli-luciferase reporter assay (Gli-Luc MEFs). Particulars: n=5, read-out: IC50, inhibition of Shh stimulated luciferase reporter activity in Gli-Luc MEFs. The class given is cell-based. From the text:
Mouse Embryonic Fibroblast Gli-Luciferase Assay Mouse Embryonic Fibroblasts expressing luciferase under control of an 8× Gli-response element (Gli-Luc MEFs)^23 were obtained from the Pfizer transgenic core facility. Luciferase activity was quantified with an ENVISION™ plate reader (Perkin Elmer). Graphpad Prism was used for data analysis and IC50 calculation.

The target in data set [6] is T1, human SMO (amino acids 181-787) (Homo sapiens, UniProt Q99835).
T1 construct: V5-His (named only in the vector, pSecTag-FRT/V5-His); expressed in transfected cells; membranes prepared
The experiment in a line: SMO radioligand competition binding assay. Here is the method: SMO Radioligand Competition Binding Assay
Membranes were prepared from a stable cell line created in HEK293FlpIn-TetR cells (Invitrogen) using Flp recombinase-mediated insertion of the pSecTag-FRT/V5-His vector containing a cDNA encoding amino acids 181-787 of human Smo fused to the murine Igk leader sequence to produce a cell surface expressed […] protein. LacZ-negative cells were analyzed for binding a well characterized cyclopamine-competitive tritiated Smo antagonist^22. The tritiated ligand was prepared using Crabtree's catalyst and tritium gas. The labeled material was purified by RP HPLC (53.1 Ci/mmol specific activity at 99% purity). For the binding competition assay, 100 μl of assay buffer was added to all the wells of a 96 well GF/B filter plate (Millipore MULTISCREEN-HTS-FB™ cat # MSFBN6B50). The plates were counted in a TOPCOUNT™ scintillation counter (Perkin Elmer). Data analysis uses EXCEL™ for % Inhibition and GRAPHPAD PRISM™ for IC50 calculation.

Where [7] appears, read: cell cycle FACS, bone marrow, 14 days.

Entries after “also recorded” stand apart in the source; their conditions may differ. Where two headings read alike, the source gives them in different places.

T1 sequence (Q99835 181-787): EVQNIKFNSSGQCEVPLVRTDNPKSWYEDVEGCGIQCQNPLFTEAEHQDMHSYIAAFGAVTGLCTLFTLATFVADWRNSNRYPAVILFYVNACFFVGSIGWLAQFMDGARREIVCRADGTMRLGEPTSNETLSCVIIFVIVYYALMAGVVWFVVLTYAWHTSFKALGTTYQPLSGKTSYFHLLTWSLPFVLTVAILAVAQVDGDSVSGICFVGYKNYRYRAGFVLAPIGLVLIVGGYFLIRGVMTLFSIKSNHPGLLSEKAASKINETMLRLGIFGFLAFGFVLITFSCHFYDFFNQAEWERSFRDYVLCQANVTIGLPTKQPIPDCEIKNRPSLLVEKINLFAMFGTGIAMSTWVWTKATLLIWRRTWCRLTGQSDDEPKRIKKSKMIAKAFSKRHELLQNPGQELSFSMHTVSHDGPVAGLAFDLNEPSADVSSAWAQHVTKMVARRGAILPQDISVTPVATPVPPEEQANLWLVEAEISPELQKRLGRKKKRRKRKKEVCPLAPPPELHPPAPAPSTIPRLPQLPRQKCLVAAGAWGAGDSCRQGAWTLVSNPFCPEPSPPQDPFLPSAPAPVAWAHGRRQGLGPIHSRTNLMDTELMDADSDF

Turning to `CN1CC[C@@H](NC(=O)Nc2ccc(C#N)cc2)C[C@@H]1c1nc2ccccc2[nH]1` [PF-04449913], the spleen weight entry in data set [1] (100 mg/kg daily, 14 days, p=0.006) is recorded as “significant decrease”. Moreover, the body weight result in data set [1] (100 mg/kg oral gavage, 14 days) is given as “no evidence of weight loss”. Moreover, in data set [1] (100 mg/kg, 14 days, p=0.056), the “GLI1 transcript level in FACS purified progenitors” value is “reductions”. For the same compound, in data set [1] (100 mg/kg, 14 days, p=0.08), the “GLI2 transcript level in FACS purified progenitors” value is given as “reductions”. Also, the “expression of cell cycle regulators” value in data set [1] (RNA sequencing of engrafted leukemic progenitors, family wise p-value 0.02) is “repression of cell cycle regulators”. In addition, the “cell cycle gene isoforms shifting toward normal progenitor splice isoform pattern” value in data set [1] (RNA sequencing, Fisher exact test p=0.0006) is reported as 75 of 110. For the same compound, the “sonic hedgehog pathway isoforms reverting to normal progenitor splice isoform pattern” value in data set [1] (RNA sequencing, Fisher exact test p=0.0048) was 37 of 50. In data set [1] (setting [7]), the “fraction of leukemic progenitors in G0” value is “reduced the fraction of leukemic progenitors in G0” and the “fraction of leukemic progenitors in G1” value is given as “increase in the G1 fraction”. Besides, in data set [1] (immunofluorescence and nanoproteomics (p=0.001), vs vehicle), the “human GLI protein expression” value is “reduced human GLI protein expression”. Further, the “LSC / leukemic progenitor survival” value in data set [2] is “significantly reduced; also recorded: reduction in blast crisis leukemic progenitor survival”. For the same compound, in the data set on normal human HSPC, the “frequency of HSPC, myeloid and lymphoid cell fate commitment” value was “remained comparable to vehicle treated controls”; the “human hematopoietic cell cycle status” value is reported as “unaltered”. Besides, the “percentage of normal HSPC” value in data set [3] (7 days SL/M2 stromal co-culture) was “remained constant”. For the same compound, the “differentiation capacity of normal human HSPC” value in data set [3] (hematopoietic progenitor assays) is “unimpaired”. Moreover, the medulloblastoma growth entry in data set [4] (Ptch1+/−p53+/− allograft model) is listed as “significantly reduce medulloblastoma growth”. Besides, the “Shh target gene expression in allograft” value in data set [4] (Ptch+/−p53+/− allografts) is given as “decreased Shh target gene expression”. In data set [5], the IC50 came out at 6.8 nM. The IC50 in data set [6] (4.3 nM+/−5.2 nM, N=5, read-out: IC50, SMO competition binding, value with spread) was determined as 4.3 nM. Further, in data set [6] (cyclopamine-competitive tritiated SMO antagonist, read-out: IC50, competition with radiolabeled SMO antagonist for binding to human SMO (amino acids 181-787)), the IC50 was 4 nM.
